# Measured values as given in patent publication US20050192371A1, “Preparation and use of photopolymerized microparticles” (priority 1998, published 2005).
# How the values were obtained:
# [1] = Release of Rose Bengal from MSA disks versus mass fraction degraded; format: physicochemical; conditions: FIG. 14; homogeneous and heterogeneous MSA disks, 10 ml PBS, 37° C., absorbance 550 nm
# Excerpt: Crosslinked particles containing Rose Bengal were incorporated in a MSA matrix and polymerized into disks. Rose Bengal was also homogeneously incorporated into another set of MSA disks and polymerized. Advantages of using a particle-polymer composite include multi-mode degradation and release possible through the use of different biocompatible polymers and drugs, ease of control of surface degradation, and in one particular application, bone growth is facilitated by the resulting porous structures.
# Disk samples were 0.25 to 0.3 grams, 13 mm diameter and 1.5 mm thick. Disks were placed in 10 ml of PBS buffer at 37° C. to monitor the degradation.
# The absorbance of Rose Bengal was measured at 550 nm, and the disks were weighed to monitor the degradation.
# [2] = Drug release / degradation of PMSA microparticles in phosphate-buffered saline; format: physicochemical; conditions: FIG. 13; tacrine absorbance at 322 nm, Rose Bengal at 550 nm
# Procedure: The centrifuge tube was shaken to disperse the particles throughout the solution and placed in a 37° C. temperature bath for 3 minutes. The tube was then immediately centrifuged, and the buffer was drawn off and analyzed for drug concentration. The centrifuge tube was refilled with 37° C. PBS, and the cycle was repeated for about 3 hours. The tubes remained in the temperature bath for 3 minutes for the first hour, and 5-10 minutes for the remainder of the time data was collected. UV-Vis spectrophotrometry (Model 8452, Hewlett Packard) was used to determine the concentration of tacrine (absorbance was measured at 322 nm) in experiment samples.
# Drug release experiments illustrate the release properties of the microparticles formed in the photopolymerization PCA process. […] The Rose Bengal release profile is also affected by photobleaching of particles in room light. This may explain the lag time at the beginning of the Rose Bengal release in FIG. 13.
Structure (SMILES),release behavior as a function of the mass fraction of the disks degraded [1],release profile from PMSA particles into PBS buffer [2]
O=C([O-])c1c(Cl)c(Cl)c(Cl)c(Cl)c1-c1c2cc(I)c(=O)c(I)c-2oc2c(I)c([O-])c(I)cc12.[Na+].[Na+] [Rose Bengal],linear relationship between degradation and release,some influence of diffusion in the release
"Nc1c2c(nc3ccccc13)CCCC2 [tacrine, 9-amino-1,2,3,4-tetrahydroacridine]",,follows the curve for surface erosion of a sphere
